{"source": "ChEMBL document CHEMBL3232938", "about": "“Design, synthesis, and biological evaluation of dihydroartemisinin-fluoroquinolone conjugates as a novel type of potential antitubercular agents” (2014)", "format_in_all_cases": "functional", "key": {"[1]": {"tested_on": "Salmonella", "experiment": "Antibacterial activity against Salmonella assessed as growth inhibition after 7 days by microtiter plate assay", "settings": "168 h"}, "[2]": {"tested_on": "Staphylococcus aureus", "experiment": "Antibacterial activity against Staphylococcus aureus assessed as growth inhibition after 7 days by microtiter plate assay", "settings": "168 h"}, "[3]": {"tested_on": "Salmonella", "experiment": "Antibacterial activity against Salmonella assessed as zone of inhibition at 2 ug/ml", "settings": "read-out: DIZ"}, "[4]": {"tested_on": "Mycobacterium tuberculosis", "experiment": "Antibacterial activity against Mycobacterium tuberculosis H37Rv ATCC 27294 assessed as growth inhibition after 7 days by microtiter plate assay", "settings": "H37Rv ATCC 27294, 168 h"}, "[5]": {"tested_on": "Escherichia coli", "experiment": "Antibacterial activity against duck Escherichia coli assessed as zone of inhibition at 2 ug/ml", "settings": "read-out: DIZ"}, "[6]": {"tested_on": "Pseudomonas aeruginosa", "experiment": "Antibacterial activity against Pseudomonas aeruginosa assessed as zone of inhibition at 2 ug/ml", "settings": "read-out: DIZ"}, "[7]": {"tested_on": "Mycobacterium tuberculosis", "experiment": "Antibacterial activity against drug-sensitive 1 ug/ml Mycobacterium tuberculosis clinical isolate 760 assessed as growth inhibition after 7 days by microtiter plate assay", "settings": "isolate 760, 168 h"}, "[8]": {"tested_on": "Mycobacterium tuberculosis", "experiment": "Antibacterial activity against drug-sensitive 1 ug/ml Mycobacterium tuberculosis clinical isolate 821 assessed as growth inhibition after 7 days by microtiter plate assay", "settings": "isolate 821, 168 h"}, "[9]": {"tested_on": "Mycobacterium tuberculosis", "experiment": "Antibacterial activity against drug-sensitive 1 ug/ml Mycobacterium tuberculosis clinical isolate 741 assessed as growth inhibition after 7 days by microtiter plate assay", "settings": "isolate 741, 168 h"}, "[10]": {"tested_on": "Escherichia coli", "experiment": "Antibacterial activity against Escherichia coli assessed as zone of inhibition at 2 ug/ml", "settings": "read-out: DIZ"}, "[11]": {"tested_on": "Mycobacterium tuberculosis", "experiment": "Antibacterial activity against drug-sensitive 1 ug/ml Mycobacterium tuberculosis clinical isolate 758 assessed as growth inhibition after 7 days by microtiter plate assay", "settings": "isolate 758, 168 h"}, "[12]": {"tested_on": "Staphylococcus aureus", "experiment": "Antibacterial activity against Staphylococcus aureus assessed as zone of inhibition at 2 ug/ml", "settings": "read-out: DIZ"}, "[13]": {"tested_on": "Pseudomonas aeruginosa", "experiment": "Antibacterial activity against Pseudomonas aeruginosa assessed as growth inhibition after 7 days by microtiter plate assay", "settings": "168 h"}, "[14]": {"tested_on": "Escherichia coli", "experiment": "Antibacterial activity against Escherichia coli assessed as growth inhibition after 7 days by microtiter plate assay", "settings": "168 h"}, "[15]": {"tested_on": "Mycobacterium tuberculosis", "experiment": "Antibacterial activity against drug-sensitive 1 ug/ml Mycobacterium tuberculosis clinical isolate 753 assessed as growth inhibition after 7 days by microtiter plate assay", "settings": "isolate 753, 168 h"}, "[16]": {"tested_on": "Escherichia coli", "experiment": "Antibacterial activity against duck Escherichia coli assessed as growth inhibition after 7 days by microtiter plate assay", "settings": "168 h"}}}
{"smiles": "O=C(O)c1cn(-c2ccc(F)cc2)c2cc(N3CCNCC3)c(F)cc2c1=O", "note": "[SARAFLOXACIN]", "values": [{"measurement": "MIC", "setting": "[1]", "value": 16, "unit": "µg/mL"}, {"measurement": "MIC", "setting": "[2]", "value": 16, "unit": "µg/mL"}, {"measurement": "zone of inhibition at 2 µg/mL", "setting": "[3]", "value": 25, "unit": "mm"}, {"measurement": "MIC", "setting": "[4]", "value": 5.19, "unit": "µM"}, {"measurement": "zone of inhibition at 2 µg/mL", "setting": "[5]", "value": 38, "unit": "mm"}, {"measurement": "zone of inhibition at 2 µg/mL", "setting": "[6]", "value": 20, "unit": "mm"}, {"measurement": "MIC", "setting": "[7]", "value": 8, "unit": "µg/mL"}, {"measurement": "MIC", "setting": "[8]", "value": 8, "unit": "µg/mL"}, {"measurement": "MIC", "setting": "[9]", "value": 16, "unit": "µg/mL"}, {"measurement": "zone of inhibition at 2 µg/mL", "setting": "[10]", "value": 24, "unit": "mm"}, {"measurement": "MIC", "setting": "[11]", "value": 8, "unit": "µg/mL"}, {"measurement": "zone of inhibition at 2 µg/mL", "setting": "[12]", "value": "< 5", "unit": "mm"}, {"measurement": "MIC", "setting": "[13]", "value": 2, "unit": "µg/mL"}, {"measurement": "MIC", "setting": "[14]", "value": 0.5, "unit": "µg/mL"}, {"measurement": "MIC", "setting": "[15]", "value": 8, "unit": "µg/mL"}, {"measurement": "MIC", "setting": "[16]", "value": 4, "unit": "µg/mL"}]}
